Results as given in patent publication US8822211B2, “Device and method for concentrating and detecting pathogenic microbes from blood products and/or their derivatives” (Becton Dickinson Infusion Therapy Systems Inc., priority 2001, dated 2014).
“And” between values parts separate entries of the source, which are not always exact repeats. Equal entries are not always repeated.

Assays:
Assay type in all cases: cell-based
[1] = test system: Staphylococcus epidermidis; assay: Platelet aggregation with ADP in the presence of pathogenic microbes, bacteria counting; conditions: 10 μM ADP
Method: Platelet aggregation in the presence of ADP comprised the following steps:
a cryobead of Staphylococcus epidermidis was introduced into a tube of 9 ml of tryptone soy broth and incubated at 37° C. for 18-24 hours;
onto 400 μl of platelet concentrate there was added 50 μl of the suspension of Staph. epidermidis and 50 μl of ADP;
(§1) the tubes were agitated manually for 5 minutes at ambient temperature;
500 μl of PBS buffer was added;
filtration was performed on a filter with a porosity of 5 μm;
dilutions were made in series of 1/20 and 1/10 and 1/10;
100 μl of the sample was filtered on a CB04 membrane;
labeling with an esterase was performed; and
The pathogenic microbes were seeded at a high concentration to augment a possible trapping effect. ADP was added to the platelets and the bacteria at a concentration of […].

E. coli = assay: Platelet aggregation with thrombin in the presence of pathogenic microbes, bacteria counting; conditions: for Counting results (E. coli): PC 6, 11 μm filter
Method: The experimental studies performed to evaluate the aggregation of pathogenic microbes in the presence of thrombin comprised the following steps:
a cryobead of E. coli was introduced into a tube of 9 ml of tryptone soy broth and incubated at 37° C. for 18-24 hours;
160 μl of platelet concentrate was added to 20 μl of the E. coli suspension and 20 μl of thrombin;
the tube was agitated manually for 5 minutes at ambient temperature;
800 μl of PBS buffer was added;
filtration was performed through a filter of 11 μm porosity;
dilutions in series were performed: 1/20 and 1/10 and 1/10;
filtration was performed on 100 μl of sample on a CB04 membrane;
labeling with esterase was performed; and […]

[2] = test system: platelets (platelet concentrate PC 6); assay: Platelet aggregation with thrombin, counting of residual platelets after 11 μm filtration; conditions: 10 IU thrombin per test, PC 6, 5 minutes, 11 μm filter
Method: Thrombin is a strong agonist of platelet aggregation. Thrombin solutions (reference T8885 Sigma) were prepared at a concentration of 100 IU/ml when used at the rate of 10 IU/test and in diluted solution form (100 μl of thrombin mother solution with the addition of 900 μl of PBS buffer) when used at the rate of 1 IU/test.
Platelet aggregation by the intermediary of thrombin comprised:
placing 160 μl of platelet concentrate in a tube to which was added 20 μl of PBS buffer and 20 μl of thrombin;
as §1
800 μl of PBS buffer was added to the tubes;
the content of the tubes was filtered on a filter with a porosity of 11 μm;
dilutions were created in series 1/20 to 1/10 from the filtrates;
[…] of each dilution of the filtrate on a CB04 membrane were filtered;
an esterase labeling was performed; and
the platelets possibly retained on the membrane were counted.

| Compound | bacteria recovered after the aggregation step ([1]; PC 6) [%] | Concentration bacteria/ml ([1]; PC 6, 5 μm filter) [bacteria/ml] | Results (bacteria count) ([1]; PC 6, 5 μm filter) | Counting results (E. coli) (E. coli; 1 IU thrombin) | Counting results (E. coli) (E. coli; 10 IU thrombin) | clot formation after addition (E. coli; platelet concentrate with E. coli) | platelet count after aggregation and filtration [2] |
| --- | --- | --- | --- | --- | --- | --- | --- |
| Nc1ncnc2c1ncn2[C@@H]1O[C@H](COP(=O)(O)OP(=O)(O)O)[C@@H](O)[C@H]1O [ADP] | 74 | 4.7E+07 | 492 and 441 |  |  |  |  |
| Thrombin |  |  |  | 140 and 167 | 109 and 122 | A clot appeared almost instantly | 44 and 30 |
